Test results from patent US11267925B2, “Water-based polyurethane dispersions and their preparation” (Dow Global Technologies LLC, priority 2017, dated 2022).

How the values were obtained:
[1] = Solubility of DMPA in solvents and solvent blends (mixed on shaker, appearance observed); type: physicochemical; details: for affinity in terms of solubility toward DMPA: neat solvent, weight ratio solvent:DMPA 9:1, room temperature (23° C.), FIG. 2
Protocol: At room temperature (23° C.), 1 gram (g) of DMPA and 9 g solvent are added into a glass bottle and mixed on a shaker for 30 minutes. After shaking, the appearance of the mixture in each bottle is observed for solubility. The solvent is either neat dialkyl amide or a blend of dialkyl amide with PROGLYDE™ DMM dipropylene glycol dimethyl ether. Blends are prepared in three blend ratios: 2:1, 1:1, and 1:2 ether:dialkyl amide.
At room temperature (23° C.), 1 g DMPA and various weights of solvent are added into a glass bottle, then mixed for 30 minutes before checking the appearance.
(§1) The vapor pressures versus temperature profiles of neat PROGLYDE™ DMM dipropylene glycol dimethyl ether, neat N,N-DMPA, and of three different blends of dipropylene glycol dimethyl ether and N,N-DMPA containing 83 wt %, 55 wt %, and 35 wt % dipropylene glycol dimethyl ether respectively are measured in an ebulliometer in the 5-760 millimeters of mercury (mmHg) pressure range by ASTM E1719 to obtain Antoine constants and the normal boiling points of pure components and blends. Pseudo-azeotropes and actual minimum boiling azeotropes are indicated by a normal boiling point which is lower than the boiling point of either of the neat components. The solubility of DMPA in these blends is also evaluated at 25° C. at the DMPA:solvent blend ratio of 1:9. The composition of the blends is detailed in Table 1 below: […]

[2] = Vapor pressure versus temperature profiles and normal boiling points in ebulliometer (ASTM E1719); type: physicochemical
Protocol: as §1

For `COCCC(=O)N(C)C` [M3-N,N-DMPA, 3-methoxy-N,N-dimethyl propionamide], the “affinity in terms of solubility toward DMPA” value (shortened to “affinity in terms”) [1] was “good affinity toward DMPA”.
For `CCN(CC)C(C)=O` [N,N-DEAC, N,N-diethylacetamide], the “affinity in terms” value [1] was “good affinity toward DMPA”.
In the case of `CCC(=O)N(C)C` [N,N-DMPA, N,N-dimethylpropionamide], the “solubility of DMPA in N,N-DMPA at different weight ratios” value ([1]; dialkyl amide to DMPA 3:1 to 8:1, 23° C., FIG. 4) is reported as “can dissolve DMPA effectively”, the “affinity in terms” value [1] is reported as “good affinity toward DMPA” and the normal boiling point [2] is reported as 175.186 °C.
Compound `COCC(C)OCC(C)OC` (stereo not drawn) [dipropylene glycol dimethyl ether, reference compound] has a normal boiling point [2] of 174.931 °C.
